The results in this text go back to US5830897A, “α- and β-amino acid hydroxyethylamino sulfonamides useful as retroviral protease inhibitors” (G. D. Searle & Co., priority 1995, dated 1998).

pIC50: −log10 of the molar value. Like-named read-outs stand apart in the source and are kept apart here.

The target in series [1] is T1, HIV protease (Human immunodeficiency virus type 1 group M subtype B, UniProt P04585).
T1 construct: HIV protease is diluted in the assay buffer to a final enzyme concentration of 12.3 nanomolar, based on a molecular weight of 10,780
Description: biochemical. The procedure:
The enzyme method is described below. […] The positive control is MVT-101 (Miller, M. et al, Science, 246, 1149 (1989)] The assay conditions are as follows:
Assay buffer: 20 mM sodium phosphate, pH 6.4
The above described substrate is dissolved in DMSO, then diluted 10 fold in assay buffer. Final substrate concentration in the assay is 80 μM.
The final concentration of DMSO is 14% and the final concentration of glycerol is 18%. The test compound is dissolved in DMSO and diluted in DMSO to 10× the test concentration; 10 μl of the enzyme preparation is added, the materials mixed and then the mixture is incubated at ambient temperature for 15 minutes. The enzyme reaction is initiated by the addition of 40 μl of substrate. The increase in fluorescence is monitored at 4 time points (0, 8, 16 and 24 minutes) at ambient temperature. Each assay is carried out in duplicate wells.

A short description of series [2]: Intrinsic toxicity of test compound in CEM cells without virus (MTT). Type of series: cell-based. The note with it: human, Table 16, read-out: TD50 (the source's name). The text has this:
Methods, 20, 309-321 (1988).

Where [3] appears, read: Table 15A, @ 1 uM, read-out: % inhib.
Where [4] appears, read: Table 15A, @ 10 uM, read-out: % inhib.
Where [5] appears, read: Table 15A, second part (Ex., Table, Entry).
Setting [6] is: Table 5B, @ 1 μM, read-out: % inhibition.

`CC(C)CN(C[C@@H](O)[C@H](Cc1ccccc1)NC(=O)OCc1ccccc1)S(C)(=O)=O` [Table 1A Entry 51]: in series [1] (setting [3]), the inhibition at 1 µM came out at 31%. In addition, the inhibition at 10 µM in series [1] (setting [4]) is 76%.
Take `COc1ccc(S(=O)(=O)N(CC(C)C)C[C@@H](O)[C@H](Cc2ccccc2)NC(=O)c2ccccc2)cc1` [Table 16 Entry 28]: in series [1] (Table 16, enzyme assay), the pIC50 was 7.85.
With `CCc1ccccc1C(=O)N[C@@H](Cc1ccccc1)[C@H](O)CN(CC(C)C)S(=O)(=O)c1ccc(OC)cc1` [Table 16 Entry 31], the pIC50 in series [1] (Table 16, enzyme assay) was 8.00.
In the case of `COc1ccc(S(=O)(=O)N(CC(C)C)CC(O)C(Cc2ccccc2)NC(=O)c2ccccc2OC)cc1` (centres unmarked) [Table 5A Entry 29], the pIC50 in series [1] (Table 5B) is 6.72.
With `CNC(=O)C[C@H](NC(=O)c1ccc2ccccc2n1)C(=O)N[C@@H](Cc1ccccc1)[C@H](O)CN(CCC(C)C)S(=O)(=O)c1ccccc1` [Table 16 Entry 7], the CC50 in series [2] was determined as 0.039 µM.
With `COc1ccc(S(=O)(=O)N(CC(C)C)C[C@@H](O)[C@H](Cc2ccccc2)NC(=O)c2ccccc2Cl)cc1` [Table 16 Entry 30], the pIC50 in series [1] (Table 16, enzyme assay) is 8.22.
For `CC(C)CCN(C[C@@H](O)[C@H](Cc1ccccc1)NC(=O)c1ccccc1)S(=O)(=O)c1ccccc1` [Table 16 Entry 8], in series [2], the CC50 came to 0.024 µM.
`CC(C)CCN(C[C@@H](O)[C@H](Cc1ccccc1)NC(=O)OCc1ccccc1)S(=O)(=O)c1ccccc1` [Table 1A Entry 39] showed a pIC50 in series [1] (setting [5]) of 7.80.
Take `COc1ccc(S(=O)(=O)N(CC(C)C)CC(O)C(Cc2ccccc2)NC(=O)c2ccccc2CS(C)(=O)=O)cc1` (centres unmarked) [Table 5A Entry 20]: in series [1] (setting [6]), the inhibition at 1 µM came out at 85%.
Regarding `CC(C)CCN(C[C@@H](O)[C@H](Cc1ccccc1)NC(=O)C(NC(=O)CN(C)C)C(C)(C)C)S(C)(=O)=O` (some centres unmarked) [Table 3 Entry 2], the inhibition at 0.1 µM in series [1] (Table 15A, @ 0.1 uM) was found to be 38%. Also, the inhibition at 1 µM in series [1] (setting [3]) was determined as 90%.
With `COc1ccc(S(=O)(=O)N(CC(C)C)CC(O)C(Cc2ccccc2)NC(=O)c2ccccc2S(C)(=O)=O)cc1` (centres unmarked) [Table 5A Entry 17], the inhibition at 10 µM in series [1] (Table 5B, @ 10 μM, read-out: % inhibition) was 59%.
In turn, `CC(C)CCN(C[C@@H](O)[C@H](Cc1ccccc1)NC(=O)[C@H](CC(N)=O)NC(=O)c1ccc2ccccc2n1)S(C)(=O)=O` [Table 15A Entry 4] had a pIC50 in series [1] (Table 15A, first part) of 7.57.
On to `COc1ccc(S(=O)(=O)N(CC(C)C)CC(O)C(Cc2ccccc2)NC(=O)c2ccc3[nH]ccc3c2)cc1` (centres unmarked) [Table 5A Entry 5], for which the pIC50 in series [1] (Table 5B) is 7.59.
For the compound `CC(C)CCN(C[C@@H](O)[C@H](Cc1ccccc1)NC(=O)OCc1ccccc1)S(=O)(=O)Cc1ccccc1` [Table 1a Entry 6], the inhibition at 10 µM in series [1] (setting [4]) was 36%.
For `CC(C)CCN(C[C@@H](O)[C@H](Cc1ccccc1)NC(=O)OCc1ccccc1)S(=O)(=O)c1ccccc1[N+](=O)[O-]` [Table 1a Entry 3], in series [1] (setting [3]), the inhibition at 1 µM is 38%. Moreover, in series [1] (setting [4]), the inhibition at 10 µM turned out to be 79%.
Consider `CC(C)CCN(C[C@@H](O)[C@H](Cc1ccccc1)NC(=O)[C@@H](NC(=O)CN(C)C)C(C)(C)C)S(C)(=O)=O` [Table 16 Entry 6], for which the CC50 in series [2] was found to be 0.425 µM.
In series [1] (Table 16, enzyme assay), `CC(C)CCN(C[C@@H](O)[C@H](Cc1ccccc1)NC(=O)OCc1ccccc1)S(=O)(=O)c1ccccc1` [drawing 326] had a pIC50 of 7.80.
The compound `CC(C)CCN(C[C@@H](O)[C@H](Cc1ccccc1)NC(=O)C(N)C(C)(C)C)S(=O)(=O)c1ccccc1` (some centres unmarked) [Table 11 Entry 1] showed a negative-log IC50 (pIC50) in series [1] (setting [5]) of 6.89.
For the compound `CC(C)CCN(C[C@@H](O)[C@H](Cc1ccccc1)NC(=O)[C@H](CC(N)=O)NC(=O)c1ccc2ccccc2n1)S(C)(=O)=O` [Table 16 Entry 4], the negative-log IC50 (pIC50) in series [1] (Table 16, enzyme assay) was 7.57.
For the compound `CC(C)CCN(C[C@@H](O)[C@H](Cc1ccccc1)NC(=O)OCc1ccccc1)S(=O)(=O)C(F)(F)F` [Table 1A Entry 50], in series [1] (setting [3]), the inhibition at 1 µM is 42%. Further, the inhibition at 10 µM in series [1] (setting [4]) was determined as 89%.
With `CCC(C)[C@H](NC(=O)CN(C)C)C(=O)N[C@@H](Cc1ccccc1)[C@H](O)CN(CCC(C)C)S(=O)(=O)c1ccccc1` (some centres unmarked) [Table 16 Entry 14], the CC50 in series [2] came to 55 µM.
For the compound `CC(C)CCN(C[C@@H](O)[C@H](Cc1ccccc1)NC(=O)OCc1ccccc1)S(C)(=O)=O` [Table 1A Entry 41], the inhibition at 1 µM in series [1] (setting [3]) amounted to 24%. Further, the inhibition at 10 µM in series [1] (setting [4]) was 74%.
In series [1] (setting [5]), `CC(C)CCN(C[C@@H](O)[C@H](Cc1ccccc1)NC(=O)OCc1ccccc1)S(=O)(=O)c1ccc(F)cc1` [Table 1a Entry 1] gave a pIC50 of 7.96.
The same measure, in the same setting: the figure for `CC(C)CCN(C[C@@H](O)[C@H](Cc1ccccc1)NC(=O)OCc1ccccc1)S(=O)(=O)c1ccc2ccccc2c1` [Table 1a Entry 4] is 7.80.
Consider `COc1ccc(S(=O)(=O)N(CC(C)C)CC(O)C(Cc2ccccc2)NC(=O)c2ccc(CS(C)(=O)=O)cc2)cc1` (centres unmarked) [Table 5A Entry 22], for which the inhibition at 1 µM in series [1] (setting [6]) came to 63%.
With `CC(C)CCN(C[C@@H](O)[C@H](Cc1ccccc1)NC(=O)OCc1ccccc1)S(=O)(=O)CCl` [Table 1A Entry 52], the inhibition at 1 µM in series [1] (setting [3]) worked out at 39%. Moreover, in series [1] (setting [4]), the inhibition at 10 µM turned out to be 81%.
Consider `CC(C)CCN(C[C@@H](O)[C@H](Cc1ccccc1)NC(=O)[C@@H](NC(=O)CBr)C(C)(C)C)S(=O)(=O)c1ccccc1` [Table 12 Entry 10], for which the pIC50 in series [1] (setting [5]) was 8.48.
`CC(C)CCN(C[C@@H](O)[C@H](Cc1ccccc1)NC(=O)OCc1ccccc1)S(=O)(=O)c1ccccc1` [drawing 314] had a pIC50 in series [1] (Table 15A, first part) of 7.80.
Compound `CC(C)CN(C[C@@H](O)[C@H](Cc1ccccc1)NC(=O)OCc1ccccc1)S(=O)(=O)c1ccc(F)cc1` [Table 1a Entry 7] gave a pIC50 in series [1] (setting [5]) of 8.02.
